Data on five compounds can be found in patent publication US11992491B2, “Crystalline salts of 5-methyl-(6S)-tetrahydrofolic acid and L-valine ethyl ester” (Merck Patent GmbH, priority 2018, dated 2024).

For data set [1] the following is noted: cited from earlier work; for aqueous solubility: at room temperature, known values for calcium salt polymorphs.
For data set [2] the following is noted: for kinetic solubility: 42.5 mg in 2.00 mL purified/de-ionized water, agitated at room temperature for one minute, filtered, gravimetric evaluation of residue. Here is the method: (§1) 42.5 mg of the anhydrous form of the crystalline 5-methyl-(6S)-tetrahydrofolic acid L-valine ethyl ester salt (Form A) according to Example 2 was weighed into a 7 mL glass vial with a screw cap. 2.00 mL of purified/de-ionized water (for instance water for chromatography) was added to the solid using an adjustable volumetric pipette. The mixture was vigorously agitated at room temperature for one minute. […] The dilute suspension was filtered by centrifugal filtration and 1.50 mL of the aqueous solution was transferred into a tared glass vial (about 10 mL volume). The water was evaporated in an air dryer at 40° C. for about 15 hours, then at 50° C. for about eight hours, subsequently drying was completed at 50° C. under vacuum (10 to 20 mbar) for about 13 hours. The solubility was determined by gravimetric evaluation of the solid residue.
as §1, with “calcium” for “L-valine ethyl ester”, “salt” for “salt (Form A) according to Example 2”, “The” for “The dilute”

The conditions of data set [3]: relative humidity range from 0 to 55%; RH scans 5% per hour. From the text:
DVS measurements are typically performed with an SPS11-100n “Sorptions Prüfsystem” from ProUmid (formerly “Projekt Messtechnik”), August-Nagel-Str. 23, 89079 Ulm (Germany).
23, 89079 Ulm (Germany). For relative humidity (RH) scans, change rates of 5% per hour were used.

Regarding `CN1c2c(nc(N)[nH]c2=O)NC[C@@H]1CNc1ccc(C(=O)N[C@@H](CCC(=O)O)C(=O)O)cc1` [5-methyl-(6S)-tetrahydrofolic acid], the “solubility in water (in words)” value in data set [1] (water) is on record as “poorly soluble”.
As for “5-methyl-(6S)-tetrahydrofolic acid calcium salt”, the kinetic solubility in data set [2] is reported as 9.0 mg of 5-methyl-(6S)-tetrahydrofolic acid per mL. Besides, in data set [3], the “change of relative sample mass (DVS)” value was “about 6%”.
Take `CN1c2c([nH]c(N)nc2=O)NC[C@@H]1CNc1ccc(C(=O)N[C@@H](CCC(=O)[O-])C(=O)[O-])cc1.[Ca+2]` [metastable Form I, calcium salt of 5-methyl-(6S)-tetrahydrofolic acid]: the aqueous solubility result in data set [1] was “about 10 mg/ml”.
Regarding `CN1c2c([nH]c(N)nc2=O)NC[C@@H]1CNc1ccc(C(=O)N[C@@H](CCC(=O)[O-])C(=O)[O-])cc1.[Ca+2]` [calcium salt (Form Ill), calcium salt of 5-methyl-(6S)-tetrahydrofolic acid], in data set [1], the aqueous solubility result is “about 2.5 mg/ml”.
On to “5-methyl-(6S)-tetrahydrofolic acid L-valine ethyl ester salt”, for which the kinetic solubility in data set [2] is reported as 12.5 mg of 5-methyl-(6S)-tetrahydrofolic acid per mL. In addition, the “improvement of kinetic solubility versus the known metastable Form 1 of the calcium salt” value in data set [2] (versus calcium salt Form 1) is “about 50%”. In addition, the “change of relative sample mass (DVS)” value in data set [3] is listed as “less than 1%”.
